The supplement of paper PMC10307832

Assays:
Experiment in all cases: relative viability (nuclei count vs DMSO), 5 days (fraction); higher = more cells survive
Ruxolitinib + Olaparib = compound: N#CC[C@H](C1CCCC1)n1cc(-c2ncnc3[nH]ccc23)cn1 [Ruxolitinib] + O=C(c1cc(Cc2n[nH]c(=O)c3ccccc23)ccc1F)N1CCN(C(=O)C2CC2)CC1 [Olaparib] (partner 8 µM)
In short: (§1)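 Relative viability is defined as nuclei in treated wells over nuclei in vehicle wells. Duplicate plates were run and medians reported. Lung cancer cell lines in 1536-well plates were dosed by pin tool one day after seeding, with one drug or with a fixed anchor-drug dose plus five library-drug doses (not always all listed) in √10 steps, and nuclei were counted after 5 days.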

Vismodegib + Olaparib = compound: CS(=O)(=O)c1ccc(C(=O)Nc2ccc(Cl)c(-c3ccccn3)c2)c(Cl)c1 [Vismodegib] + O=C(c1cc(Cc2n[nH]c(=O)c3ccccc23)ccc1F)N1CCN(C(=O)C2CC2)CC1 [Olaparib] (partner 8 µM)
In short: as §1

Ruxolitinib + Pictilisib = compound: N#CC[C@H](C1CCCC1)n1cc(-c2ncnc3[nH]ccc23)cn1 [Ruxolitinib] + CS(=O)(=O)N1CCN(Cc2cc3nc(-c4cccc5[nH]ncc45)nc(N4CCOCC4)c3s2)CC1 [Pictilisib] (partner 1 µM)
In short: as §1

Vismodegib + OSI-027 = compound: CS(=O)(=O)c1ccc(C(=O)Nc2ccc(Cl)c(-c3ccccn3)c2)c(Cl)c1 [Vismodegib] + COc1cccc2cc(-c3nc([C@H]4CC[C@H](C(=O)O)CC4)n4ncnc(N)c34)[nH]c12 [OSI-027] (partner 0.5 µM)
In short: as §1

Cell Line	relative viability (Ruxolitinib + Olaparib; first compound 0.08 µM)	relative viability (Ruxolitinib + Olaparib; first compound 0.253 µM)	relative viability (Ruxolitinib + Olaparib; first compound 0.8 µM)	relative viability (Ruxolitinib + Olaparib; first compound 2.53 µM)	relative viability (Ruxolitinib + Olaparib; first compound 8 µM)	relative viability (Vismodegib + Olaparib; first compound 0.08 µM)	relative viability (Vismodegib + Olaparib; first compound 0.253 µM)	relative viability (Vismodegib + Olaparib; first compound 0.8 µM)	relative viability (Vismodegib + Olaparib; first compound 2.53 µM)	relative viability (Vismodegib + Olaparib; first compound 8 µM)	relative viability (Ruxolitinib + Pictilisib; first compound 0.08 µM)	relative viability (Ruxolitinib + Pictilisib; first compound 0.253 µM)	relative viability (Ruxolitinib + Pictilisib; first compound 0.8 µM)	relative viability (Ruxolitinib + Pictilisib; first compound 2.53 µM)	relative viability (Ruxolitinib + Pictilisib; first compound 8 µM)	relative viability (Vismodegib + OSI-027; first compound 0.08 µM)	relative viability (Vismodegib + OSI-027; first compound 0.253 µM)	relative viability (Vismodegib + OSI-027; first compound 0.8 µM)	relative viability (Vismodegib + OSI-027; first compound 2.53 µM)	relative viability (Vismodegib + OSI-027; first compound 8 µM)
NCI-H1666	0.74	0.759	0.797	0.786	0.698	0.679	0.747	0.727	0.732	0.749	0.384	0.453	0.483	0.415	0.611	0.841	0.764	0.786	0.858	0.958
EPLC-272H	0.829	0.922	0.818	0.544	0.344	0.839	0.69	0.674	0.783	0.837	0.141	0.36	0.336	0.281	0.268	0.291	0.273	0.279	0.278	0.275
NCI-H838	0.801	0.718	0.62	0.4	0.202	0.791	0.71	0.777	0.757	0.778	0.464	0.433	0.402	0.24	0.278	0.416	0.334	0.338	0.41	0.441
NCI-H2087	0.433	–	0.454	0.631	0.579	0.582	0.594	0.607	0.594	0.508	0.798	0.937	0.645	0.335	0.842	0.645	0.476	0.398	0.618	0.39
LC-2-ad	0.797	0.743	0.792	0.801	0.624	0.681	0.734	0.686	0.658	0.716	0.41	0.313	0.519	0.362	0.211	0.975	0.786	0.824	0.809	0.676
NCI-H2405	0.931	0.838	0.882	0.633	0.573	0.856	0.909	0.823	0.833	0.875	–	0.338	0.463	0.286	0.269	0.621	0.615	0.573	0.621	0.639
HCC-366	0.424	0.417	0.39	0.287	0.197	0.343	0.364	0.378	0.431	0.372	0.154	0.134	0.161	0.094	0.101	1.32	0.888	0.77	0.929	0.775
NCI-H3122	0.7	0.635	0.711	0.627	0.644	0.613	0.598	0.614	0.664	0.65	0.538	0.509	0.552	0.357	0.562	0.971	0.863	0.84	0.849	0.981
LU99A	0.272	0.277	0.268	0.237	0.224	0.306	0.278	0.292	0.267	0.247	0.321	0.315	0.401	0.339	0.316	0.35	0.271	0.24	0.278	0.287
NCI-H1650	0.689	0.784	0.879	0.836	0.751	0.896	0.633	0.763	0.794	0.746	–	0.608	0.734	0.551	0.645	0.652	0.562	0.577	0.555	0.729
EMC-BAC-2	0.465	0.482	0.478	0.478	0.406	0.523	0.488	0.487	0.472	0.526	0.534	0.495	0.57	0.495	0.384	0.423	0.378	0.419	0.394	0.395
HCC-78	0.779	0.872	0.897	0.866	0.934	0.676	0.79	0.639	0.755	0.844	0.162	0.14	0.207	0.255	0.216	0.372	0.371	0.382	0.347	0.347
NCI-H1734	0.605	0.554	0.64	0.56	0.583	0.574	0.515	0.605	0.59	0.672	0.479	0.417	0.435	0.37	0.468	0.603	0.598	0.727	0.577	0.605
COR-L23	0.369	0.371	0.376	0.329	0.272	0.35	0.339	0.337	0.281	0.317	0.755	0.748	0.795	0.625	0.531	0.753	0.743	0.742	0.793	0.751
RERF-LC-KJ	0.966	0.881	0.948	0.844	0.626	0.985	0.826	0.785	0.862	0.96	0.517	0.447	0.656	0.53	0.393	0.678	0.568	0.621	0.593	0.487
NCI-H1437	0.669	0.622	0.624	0.549	0.463	0.633	0.607	0.653	0.63	0.598	0.533	0.351	0.43	0.429	0.397	0.884	0.805	0.905	0.858	0.804
NCI-H1915	0.249	0.255	0.265	0.208	0.236	0.276	0.256	0.244	0.273	0.232	0.894	0.925	0.952	0.803	0.835	0.669	0.592	0.536	0.566	0.608
SK-MES-1	0.766	0.639	0.713	0.563	0.597	0.701	0.656	0.62	0.707	0.685	0.268	0.337	0.359	0.394	0.335	0.729	0.576	0.598	0.59	0.577

Cell Line	relative viability (Ruxolitinib + Olaparib; first compound 0.08 µM)	relative viability (Ruxolitinib + Olaparib; first compound 0.253 µM)	relative viability (Ruxolitinib + Olaparib; first compound 0.8 µM)	relative viability (Ruxolitinib + Olaparib; first compound 2.53 µM)	relative viability (Ruxolitinib + Olaparib; first compound 8 µM)	relative viability (Vismodegib + Olaparib; first compound 0.08 µM)	relative viability (Vismodegib + Olaparib; first compound 0.253 µM)	relative viability (Vismodegib + Olaparib; first compound 0.8 µM)	relative viability (Vismodegib + Olaparib; first compound 2.53 µM)	relative viability (Vismodegib + Olaparib; first compound 8 µM)	relative viability (Ruxolitinib + Pictilisib; first compound 0.08 µM)	relative viability (Ruxolitinib + Pictilisib; first compound 0.253 µM)	relative viability (Ruxolitinib + Pictilisib; first compound 0.8 µM)	relative viability (Ruxolitinib + Pictilisib; first compound 2.53 µM)	relative viability (Ruxolitinib + Pictilisib; first compound 8 µM)	relative viability (Vismodegib + OSI-027; first compound 0.08 µM)	relative viability (Vismodegib + OSI-027; first compound 0.253 µM)	relative viability (Vismodegib + OSI-027; first compound 0.8 µM)	relative viability (Vismodegib + OSI-027; first compound 2.53 µM)	relative viability (Vismodegib + OSI-027; first compound 8 µM)
NCI-H522	0.632	0.719	0.704	0.468	0.705	0.786	0.591	0.612	0.567	0.565	–	–	–	–	–	0.805	0.742	0.672	0.659	0.812
NCI-H1299	0.939	0.998	0.963	0.985	0.757	0.913	0.964	0.967	0.935	0.951	0.773	0.761	0.883	0.716	0.504	–	–	–	–	–
NCI-H1651	0.192	0.179	0.189	0.198	0.211	0.176	0.192	0.188	0.182	0.204	0.742	0.599	0.727	0.477	0.664	0.658	0.774	0.543	0.771	0.703
NCI-H661	0.771	0.81	0.735	0.808	0.614	0.837	0.69	0.745	0.715	0.718	0.41	0.322	0.379	–	0.465	0.735	0.705	0.723	0.738	0.731
NCI-H1944	0.431	0.426	0.428	0.399	0.448	0.414	0.404	0.398	–	0.441	0.362	0.334	0.381	0.323	0.332	0.413	0.391	0.422	0.388	0.442
NCI-H2228	0.58	0.847	0.576	0.614	0.592	0.596	0.796	0.56	0.502	0.477	0.584	0.362	0.365	0.255	0.246	0.7	0.636	0.587	0.532	0.467
NCI-H1792	0.303	0.44	0.377	0.384	0.236	0.381	0.412	0.527	0.349	0.376	0.259	0.289	0.278	0.197	0.214	0.766	0.75	0.606	0.679	0.623
HCC-44	0.958	0.889	0.978	0.922	0.995	0.945	0.919	0.981	1.01	0.962	0.594	0.649	0.686	0.463	0.307	0.532	0.482	0.453	0.526	0.611
EBC-1	0.718	0.726	0.77	0.708	0.533	0.662	0.674	0.751	0.69	0.74	0.386	0.309	0.583	0.353	0.32	–	–	–	–	–
NCI-H2342	0.46	0.533	0.413	0.498	0.398	0.402	0.421	0.418	0.52	0.406	–	–	–	–	–	0.698	0.651	0.522	0.627	0.637
Calu-6	0.575	0.62	0.577	–	0.39	0.589	0.558	0.562	0.434	0.587	0.99	0.943	0.958	0.828	0.667	–	–	–	–	–
NCI-H1703	0.44	0.439	0.55	0.237	0.315	0.495	0.42	0.543	0.349	0.44	0.255	0.265	0.232	0.24	0.205	–	–	–	–	–
NCI-H1563	–	–	–	–	–	–	–	–	–	–	0.653	0.669	0.691	0.623	0.661	0.757	0.734	0.767	0.694	0.809
NCI-H1623	–	–	–	–	–	–	–	–	–	–	–	–	–	–	–	0.476	0.415	0.461	0.419	0.456
IA-LM	0.98	0.867	0.805	0.819	0.669	0.841	0.853	0.892	0.773	0.941	0.349	0.35	0.387	0.544	0.46	–	–	–	–	–
SW 900	0.805	0.944	0.955	1.05	0.91	0.743	0.866	0.784	–	0.803	–	–	–	–	–	0.62	0.395	0.432	0.616	0.637
NCI-H1648	0.854	0.852	1.11	1.35	1.18	0.781	0.767	0.46	0.645	0.872	–	–	–	–	–	0.22	0.27	0.29	0.258	0.207
A549	0.226	0.36	0.35	0.331	0.0796	0.247	0.358	0.31	0.352	0.194	0.579	0.529	0.576	0.407	0.233	–	–	–	–	–
